Laboratory results from patent US7767685B2, “Adenosine A2B receptor antagonists” (King Pharmaceuticals Research and Development, Inc., priority 2006, dated 2010).

Assays:
[1] = biological target: T1, human A2B adenosine receptors (Homo sapiens, UniProt P29275); assay: Displacement of [3H]MRE2029F20 binding at human A2B adenosine receptors; conditions: [3H]MRE2029F20 displacement, human A2B receptors (footnote: HEK293 cells; method: CHO cells), n = 3-6; geometric mean (95% confidence limits); read-out: Ki hA2B
T1 construct: expressed in transfected cells; host or cells: CHO cells (whole cells)
T1 sequence (P29275 1-332): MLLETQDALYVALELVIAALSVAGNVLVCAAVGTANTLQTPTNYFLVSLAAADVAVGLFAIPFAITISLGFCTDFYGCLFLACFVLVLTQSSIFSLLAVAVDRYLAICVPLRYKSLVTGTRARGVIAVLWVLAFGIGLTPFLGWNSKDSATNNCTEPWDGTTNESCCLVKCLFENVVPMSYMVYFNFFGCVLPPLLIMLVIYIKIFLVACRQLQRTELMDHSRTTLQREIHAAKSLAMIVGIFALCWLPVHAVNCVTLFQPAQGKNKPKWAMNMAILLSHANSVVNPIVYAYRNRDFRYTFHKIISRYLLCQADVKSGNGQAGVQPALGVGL
Method: […] (Naunyn-Schmied. Arch Pharm. 1998, 357: 1-9). Briefly, the cells are grown adherently and maintained in Dulbecco's Modified Eagles Medium with nutrient mixture F12 (DMEM/F12) without nucleosides, containing 10% fetal calf serum, penicillin (100 U/mL), streptomycin (100 μg/mL), L-glutamine (2 mM) and Geneticin (G418, 0.2 mg/ml) at 37° C. in 5% CO2/95% air. For membrane preparation the culture medium is removed and the cells are washed with phosphate-buffered saline and scraped off T75 flasks in ice-cold hypo tonic buffer (5 mM Tris HCl, 1 mM EDTA, pH 7.4). The cell suspension is homogenized with Polytron, the homogenate is spun for 10 min at 1000×g and the supernatant is then centrifuged for 30 min at 100,000×g. The membrane pellet is suspended in 50 mM Tris HCl buffer (pH 7.4) for A1 adenosine receptors, in 50 mM Tris HCl, 10 mM MgCl2 (pH 7.4) for A2A adenosine receptors, in 50 mM Tris HCl, 10 mM MgCl2, 1 mM EDTA (pH 7.4) for A2B and A3 adenosine receptors.
All new synthesized compounds have been tested to evaluate their affinity to human A1, A2A, A2B and A3 adenosine receptors. […] Pharmacol., 2000, 57: 968-975). Non-specific binding is determined in the presence of 10 μM of CHA and this is always ≦10% of the total binding. […] recombinant A2A adenosine receptors is performed using a suspension of membranes (50 μg of protein/assay) and at least 6-8 different concentrations of studied antagonists for an incubation time of 60 min at 4° C. Non-specific binding is determined in the presence of 1 μM ZM 241385 and is about 20% of total binding. […] Non-specific binding is defined as binding in the presence of 1 μM MRE 3029F20 and is about 25% of total binding. […] Non-specific binding is defined as binding in the presence of 1 μM MRE 3008F20 and is about 25% of total binding. Bound and free radioactivity are separated by filtering the assay mixture through Whatman GF/B glass fiber filters using a Micro-Mate 196 cell harvester (Packard Instrument Co.). The filter bound radioactivity is counted on a Top Count (efficiency 57%) with Micro-Scint 20.
The protein concentration is determined according to a Bio-Rad method (Bradford, Anal Biochem. 1976, 72: 248-254) with bovine albumin as a standard reference. Inhibitory binding constant, Ki, values are calculated from those of IC50 according to Cheng & Prusoff equation (Biochem. Pharmacol 1973, 22: 3099-3108): Ki=IC50/(1+[C*]/KD*) where [C*] is the concentration of the radioligand and KD* its dissociation constant. A weighted non linear least-squares curve fitting program LIGAND (Munson et al., Anal. Biochem 1980, 107: 220-239) is used for computer analysis of inhibition experiments Data are expressed as geometric mean with 95% confidence limits in parentheses. Examples of Animal Models

Row | Ki [1] [nM] | melting point [°C] | Structure (SMILES)
1 | 15 | 255 to 257 | CCCn1c(=O)c2[nH]c(-c3cc(C)n(CC(=O)Nc4ccccc4)n3)nc2n(CCC)c1=O [Example 1, 2-[3-(2,6-Dioxo-1,3-dipropyl-2,3,6,7-tetrahydro-1H-purin-8-yl)-5-methyl-pyrazol-1-yl]-N-phenyl-acetamide]
2 | 28 | 286 to 289 | CCCn1c(=O)c2[nH]c(-c3cc(C)n(CC(=O)Nc4ccc(I)cc4)n3)nc2n(CCC)c1=O [Example 2, 2-[3-(2,6-Dioxo-1,3-dipropyl-2,3,6,7-tetrahydro-1H-purin-8-yl)-5-methyl-pyrazol-1-yl]-N-(4-iodophenyl)-acetamide]
3 | 14 | 205 to 207 | CCCn1c(=O)c2[nH]c(-c3cc(C)n(CC(=O)Nc4ccc(F)cc4)n3)nc2n(CCC)c1=O [Example 5, 2-[3-(2,6-Dioxo-1,3-dipropyl-2,3,6,7-tetrahydro-1H-purin-8-yl)-5-methyl-pyrazol-1-yl]-N-(4-fluoro-phenyl)-acetamide]
4 | 12 | 293 to 296 | CCCn1c(=O)c2[nH]c(-c3cc(C)n(CC(=O)Nc4ccc(OC)cc4)n3)nc2n(CCC)c1=O [Example 6, 2-[3-(2,6-Dioxo-1,3-dipropyl-2,3,6,7-tetrahydro-1H-purin-8-yl)-5-methyl-pyrazol-1-yl]-N-(4-methoxyphenyl)-acetamide]
5 | 48 | 261 to 265 | CCCn1c(=O)c2[nH]c(-c3cc(C)n(CC(=O)Nc4ccc(C)c(C)c4)n3)nc2n(CCC)c1=O [Example 7, 2-[3-(2,6-Dioxo-1,3-dipropyl-2,3,6,7-tetrahydro-1H-purin-8-yl)-5-methyl-pyrazol-1-yl]-N-(3,4-dimethylphenyl)-acetamide]
6 | 60 | 285 to 290 | CCCn1c(=O)c2[nH]c(-c3cc(C)n(CC(=O)Nc4ccc(OC)c(OC)c4)n3)nc2n(CCC)c1=O [Example 8, 2-[3-(2,6-Dioxo-1,3-dipropyl-2,3,6,7-tetrahydro-1H-purin-8-yl)-5-methyl-pyrazol-1-yl]-N-(3,4-dimethoxyphenyl)-acetamide]
7 | 20 | 283 to 285 | CCCn1c(=O)c2[nH]c(-c3ccn(CC(=O)Nc4ccc(Cl)cc4)n3)nc2n(CCC)c1=O [Example 10, 2-[3-(2,6-Dioxo-1,3-dipropyl-2,3,6,7-tetrahydro-1H-purin-8-yl)-pyrazol-1-yl]-N-(4-chloro-phenyl)-acetamide]
8 | > 1000 | 268 to 271 | CCCn1c(=O)c2[nH]c(-c3cc(C)n(CC(=O)Nc4ccc(C(C)CC)cc4)n3)nc2n(CCC)c1=O (stereo not drawn) [Example 12, 2-[3-(2,6-Dioxo-1,3-dipropyl-2,3,6,7-tetrahydro-1H-purin-8-yl)-5-methyl-pyrazol-1-yl]-N-(4-sec-butylphenyl)-acetamide]
9 | 65 | 274 to 277 | CCCn1c(=O)c2[nH]c(-c3cc(C)n(CC(=O)Nc4cccc(OC)c4)n3)nc2n(CCC)c1=O [Example 14, 2-[3-(2,6-Dioxo-1,3-dipropyl-2,3,6,7-tetrahydro-1H-purin-8-yl)-5-methyl-pyrazol-1-yl]-N-(3-methoxylphenyl)-acetamide]
10 | 28 | 304 to 307 | CCCn1c(=O)c2[nH]c(-c3cc(C)n(CC(=O)Nc4cccc(Cl)c4)n3)nc2n(CCC)c1=O [Example 15, 2-[3-(2,6-Dioxo-1,3-dipropyl-2,3,6,7-tetrahydro-1H-purin-8-yl)-5-methyl-pyrazol-1-yl]-N-(3-chlorophenyl)-acetamide]
11 | 40 | 298 | CCCn1c(=O)c2[nH]c(-c3cc(C)n(CC(=O)Nc4ccc(Cl)c(Cl)c4)n3)nc2n(CCC)c1=O [Example 16, 2-[3-(2,6-Dioxo-1,3-dipropyl-2,3,6,7-tetrahydro-1H-purin-8-yl)-5-methyl-pyrazol-1-yl]-N-(3,4-dichlorophenyl)-acetamide]
12 | 56 | > 300 | CCCn1c(=O)c2[nH]c(-c3cc(C)n(CC(=O)Nc4ccc(C)cc4)n3)nc2n(CCC)c1=O [Example 17, 2-[3-(2,6-Dioxo-1,3-dipropyl-2,3,6,7-tetrahydro-1H-purin-8-yl)-5-methyl-pyrazol-1-yl]-N-p-tolyl-acetamide]
13 | 222 | – | CCCn1c(=O)c2[nH]c(-c3nn(CC(=O)Nc4ccc(Cl)cc4)c(C)c3Cl)nc2n(CCC)c1=O [Example 18, 2-[4-Chloro-3-(2,6-dioxo-1,3-dipropyl-2,3,6,7-tetrahydro-1H-purin-8-yl)-5-methyl-pyrazol-1-yl]-N-(4-chlorophenyl)-acetamide]
14 | 250 | 298 to 299 | CCCn1c(=O)c2[nH]c(-c3nn(CC(=O)Nc4ccc(Cl)cc4)c(C)c3Br)nc2n(CCC)c1=O [Example 19, 2-[4-Bromo-3-(2,6-dioxo-1,3-dipropyl-2,3,6,7-tetrahydro-1H-purin-8-yl)-5-methyl-pyrazol-1-yl]-N-(4-chlorophenyl)-acetamide]
